{"source": "patent US20160251341A1", "about": "“SUBSTITUTED TRIAZOLE COMPOUNDS AS SERINE PROTEASE INHIBITORS” (Verseon Corporation, priority 2015, published 2016)", "key": {"[1]": {"molecular_target": "T1, Human thrombin (Homo sapiens, UniProt P00734)", "T1 construct": "purchased Haematologic Technologies Inc", "assay": "Thrombin protease inhibition assay (chromogenic substrate S-2238)", "type": "biochemical", "details": "3 nM human thrombin, 125 μM S-2238, 10 min pre-incubation, RT", "experimental": "The thrombin activity reported herein (e.g., Table A) was obtained as follows. Human thrombin was obtained from Haematologic Technologies Inc. The chromogenic substrate S-2238 was obtained from DiaPharma. Thrombin was assayed in buffer containing 0.05 M Tris (pH 7.4), 0.015 M NaCl and 0.01% PEG-8000. The final concentration of enzyme used was 3 nM thrombin. The final concentration of substrate used was 125 μM S-2238 for thrombin. All assays were performed in 96-well microtiter plates at room temperature (RT). The enzyme and inhibitor were pre-incubated for 10 minutes then substrate was added and read at 405 nm in a SpectraMax Plus Spectrophotometer (Molecular Devices). Inhibitor IC50 values were determined by adding test compound as ten point, three-fold serial dilutions in buffer solution, as known in the art. The plate was read at 10 minutes after substrate addition. The IC50 was calculated by plotting the percent (%) inhibition against compound concentration and fitting the data to a constrained four parameter sigmoidal curve, as known in the art."}, "[2]": {"tested_on": "malignant breast tumors", "details": "treated mice, cited from earlier work"}}}
{"smiles": "COc1ccccc1C(=O)n1nc(C2CCN(C(=O)N3CCCCC3)CC2)nc1NCc1ccc(Cl)s1", "note": "[Entry 44, N-[(5-chlorothiophen-2-yl)methyl]-1-(2-methoxybenzoyl)-3-[1-(piperidine-1-carbonyl)piperidin-4-yl]-1H-1,2,4-triazol-5-amine]", "values": [{"measurement": "IC50", "setting": "[1]", "result": "≤ 0.1", "unit": "µM"}]}
{"smiles": "COc1ccccc1C(=O)n1nc(C2CCCN2C(=O)OC(C)(C)C)nc1NCc1ccc(Cl)s1", "note": "(stereo not shown) [Entry 68, tert-butyl 2-(5-[(5-chlorothiophen-2-yl)methyl]amino-1-(2-methoxybenzoyl)-1H-1,2,4-triazol-3-yl)pyrrolidine-1-carboxylate]", "values": [{"measurement": "IC50", "setting": "[1]", "result": "0.1 to 1", "unit": "µM"}]}
{"smiles": "CCCCCCOC(=O)NC(=N)c1ccc(NCc2nc3cc(C(=O)N(CCC(=O)OCC)c4ccccn4)ccc3n2C)cc1", "note": "[dabigatran etexilate]", "values": [{"measurement": "reduction in tumor volume", "setting": "[2]; at 4 weeks", "result": 50, "unit": "%"}, {"measurement": "weight loss", "setting": "[2]; at 4 weeks", "result": "no weight loss"}, {"measurement": "reduced tumor cells in the blood and liver micrometastases", "setting": "[2]", "result": "50-60%"}]}
{"smiles": "COC1CCCCC1c1n[nH]c(N)n1", "note": "(stereo not shown) [Entry 18, 3-(2-methoxycyclohexyl)-1H-1,2,4-triazol-5-amine]", "values": [{"measurement": "IC50", "setting": "[1]", "result": "≥ 100", "unit": "µM"}]}
{"smiles": "Nc1nc(C2CCOC2)n[nH]1", "note": "(stereo not shown) [Entry 26, 3-(oxolan-3-yl)-1H-1,2,4-triazol-5-amine]", "values": [{"measurement": "IC50", "setting": "[1]", "result": "≥ 100", "unit": "µM"}]}
{"smiles": "COC1CCCCC1c1n[nH]c(NCc2ccc(Cl)s2)n1", "note": "(stereo not shown) [Entry 56, N-[(5-chlorothiophen-2-yl)methyl]-3-(2-methoxycyclohexyl)-1H-1,2,4-triazol-5-amine]", "values": [{"measurement": "IC50", "setting": "[1]", "result": "1 to 10", "unit": "µM"}]}
{"smiles": "OC1=C(c2n[nH]c(NCc3ccccc3)n2)CCCC1", "note": "[Entry 17, 2-[5-(benzylamino)-1H-1,2,4-triazol-3-yl]cyclohex-1-en-1-ol]", "values": [{"measurement": "IC50", "setting": "[1]", "result": "≥ 100", "unit": "µM"}]}
{"smiles": "CC(C)(C)OC(=O)N1CC(c2n[nH]c(NCc3ccc(Cl)s3)n2)C1", "note": "[Entry 72, tert-butyl 3-(5-[(5-chlorothiophen-2-yl)methyl]amino-1H-1,2,4-triazol-3-yl)azetidine-1-carboxylate]", "values": [{"measurement": "IC50", "setting": "[1]", "result": "≥ 100", "unit": "µM"}]}
{"smiles": "O=C(c1ccoc1)n1nc(C2CCOCC2)nc1NCc1ccc(Cl)s1", "note": "[Entry 51, N-[(5-chlorothiophen-2-yl)methyl]-1-(furan-3-carbonyl)-3-(oxan-4-yl)-1H-1,2,4-triazol-5-amine]", "values": [{"measurement": "IC50", "setting": "[1]", "result": "≤ 0.1", "unit": "µM"}]}
{"smiles": "c1ccc(CNc2nc(C3CCOCC3)n[nH]2)cc1", "note": "[Entry 66, N-benzyl-3-(oxan-4-yl)-1H-1,2,4-triazol-5-amine]", "values": [{"measurement": "IC50", "setting": "[1]", "result": "≥ 100", "unit": "µM"}]}
{"smiles": "O=C(c1ccoc1)n1nc(C2CCOC2)nc1NCc1ccc(Cl)s1", "note": "(stereo not shown) [Entry 53, N-[(5-chlorothiophen-2-yl)methyl]-1-(furan-3-carbonyl)-3-(oxolan-3-yl)-1H-1,2,4-triazol-5-amine]", "values": [{"measurement": "IC50", "setting": "[1]", "result": "≤ 0.1", "unit": "µM"}]}
{"smiles": "COc1ccccc1C(=O)n1nc(C2CCN(S(=O)(=O)C3CCCCC3)CC2)nc1NCc1ccc(Cl)s1", "note": "[Entry 64, N-[(5-chlorothiophen-2-yl)methyl]-3-[1-(cyclohexanesulfonyl)piperidin-4-yl]-1-(2-methoxybenzoyl)-1H-1,2,4-triazol-5-amine]", "values": [{"measurement": "IC50", "setting": "[1]", "result": "≤ 0.1", "unit": "µM"}]}
{"smiles": "CC(C)(C)OC(=O)N1CC(c2n[nH]c(N)n2)C1", "note": "[Entry 70, tert-butyl 3-(5-amino-1H-1,2,4-triazol-3-yl)azetidine-1-carboxylate]", "values": [{"measurement": "IC50", "setting": "[1]", "result": "≥ 100", "unit": "µM"}]}
{"smiles": "Clc1ccc(CNc2nc(C3CCOC3)n[nH]2)s1", "note": "(stereo not shown) [Entry 62, N-[(5-chlorothiophen-2-yl)methyl]-3-(oxolan-3-yl)-1H-1,2,4-triazol-5-amine]", "values": [{"measurement": "IC50", "setting": "[1]", "result": "≥ 100", "unit": "µM"}]}
